Patent US20130317095A1, “Use of Artemisine Derivatives and Pharmaceutical Salts Thereof” (Shanghai Institute of Materia Medica, Chinese Academy of …, priority 2011, published 2013)
pIC50: −log10 of the molar value.

Key:
Kasumi-1 cells [1] = experiment: MTT inhibition test, Kasumi-1 cells; format: cell-based; settings: Homo sapiens, 48 h
Description: (§1) First dissolve SM1044 in triple distilled water, concentration: 1 mg/ml, then choose typical AML cell lines such as Kasumi-1, NB4-R1, HL60 and U937 cells to perform the experiments. Plate 2.5×10^5 cells in dishes, respectively, blank group, control group without SM1044, and groups with SM1044 in various concentrations, and 3 wells for each concentration. Add MTT (5 mg/ml) to each well after incubating for a certain period, and incubate the plate for further 4 h. Centrifuge and aspirate 180 μl supernatant. Add 180 μl DMSO to each well, and place the plate a shaking table for 15 min. Measure the absorbance(A) at 570 nm using a microplate reader, and calculate the half maximal inhibitory concentration (IC50).

NB4-R1 cells [2] = experiment: MTT inhibition test, NB4-R1 cells; format: cell-based; settings: 48 h
Description: as §1

HL60 cells [3] = experiment: MTT inhibition test, HL60 cells; format: cell-based; settings: Homo sapiens, HL-60, 48 h
Description: as §1

U937 cells [4] = experiment: MTT inhibition test, U937 cells; format: cell-based; settings: Homo sapiens, U-937, 48 h
Description: as §1

Kasumi-1 cells [5] = experiment: Annexin V-FITC/PI flow cytometry apoptosis, Kasumi-1; format: cell-based; settings: Kasumi-1, 24-48 hours, various concentrations
Description: (§2) Respectively plate 3×10^5˜5×10^5 cells/m1 of Kasumi-1, NB4-R1, HL60 and U937cells in dishes. Setting control group (0 μM) and groups with SM1044 in various concentrations, incubate for 24 h and 48 h. Harvest cells and wash cells with pre-cooling phosphate buffer twice. Resuspend the cells in 200 μL binding buffer, and add 5 μL Annexin V-FITC and 5 μL propidium iodide (PI), gently mixing, incubating for 15 min at room temperature in the dark, analyzing by flow cytometry in 1 hour.

NB4-R1 cells [6] = experiment: Annexin V-FITC/PI flow cytometry apoptosis, NB4-R1; format: cell-based; settings: NB4-R1, 24-48 hours, various concentrations
Description: as §2

HL60 cells [7] = experiment: Annexin V-FITC/PI flow cytometry apoptosis, HL60; format: cell-based; settings: HL60, 24-48 hours, various concentrations
Description: as §2

U937 cells [8] = experiment: Annexin V-FITC/PI flow cytometry apoptosis, U937; format: cell-based; settings: U937, 24-48 hours, various concentrations
Description: as §2

Kasumi-1 cells [9] = experiment: Loss of mitochondrial membrane potential, DiOC6(3) flow cytometry, Kasumi-1; format: cell-based
Description: (§3) Respectively plate 3×10^5˜5×10^5 cells/ml of Kasumi-1, NB4-R1, HL60 and U937cells in dishes. Setting control group (0 μM) and groups with SM1044 in various concentrations, incubate for 24 h and 48 h. Add 20 nM DiOC6(3) and incubate for 15 min at 37° C. in the dark. Wash cells with PBS twice, and resuspend the cells in 100 μLPBS, analyzing by flow cytometry. The cells which are DiOC6(3) negative are those that lose mitochondrial membrane potential. […] There are at least two broad pathways that lead to Apoptosis, an “Extrinsic” and an “Intrinsic” Pathway, and the loss of mitochondrial membrane potential is very closely related to intrinsic pathway.

NB4-R1 cells [10] = experiment: Loss of mitochondrial membrane potential, DiOC6(3) flow cytometry, NB4-R1; format: cell-based
Description: as §3

HL-60 cells = experiment: Loss of mitochondrial membrane potential, DiOC6(3) flow cytometry, HL-60; format: cell-based
Description: as §3

U937 cells [11] = experiment: Loss of mitochondrial membrane potential, DiOC6(3) flow cytometry, U937; format: cell-based
Description: as §3

[12] = test system: caspase-3, caspase-8 and/or caspase-9 in NB4-R1 cells; experiment: Western blot of apoptosis-related proteins, NB4-R1; format: cell-based; settings: NB4-R1, 24 hours
Description: (§4) Respectively plate 3×10^5˜5×10^5 cells/ml of NB4-R1, HL60 and U937 cells in dishes. Setting control group (0 μM) and groups with SM1044 in various concentrations, and incubating for 24 hours. Extracting whole protein of the cells, detect the quantitive variation of […] related proteins (PARP, caspase-3, caspase-8, caspase-9) by antibodies through western blot. Caspase family plays an important role in mediating apoptosis. There are at least two broad pathways that lead to Apoptosis. One is extracellular signals activating intracellular caspase-8, etc, the other is mitochondria-derived activators of caspases activating caspase-9, etc. Therefore the activaigted caspases activate apoptotic excutants—caspase3 to induce apoptosis, and PARP is the substrate of caspase-3.

[13] = test system: caspase-3, caspase-8 and/or caspase-9 in HL60 cells; experiment: Western blot of apoptosis-related proteins, HL60; format: cell-based; settings: HL60, 24 hours
Description: as §4

[14] = test system: caspase-3, caspase-8 and/or caspase-9 in U937 cells; experiment: Western blot of apoptosis-related proteins, U937; format: cell-based; settings: U937, 24 hours
Description: as §4

AML1-ETO fusion gene = experiment: RT-PCR of AML1-ETO fusion gene mRNA in Kasumi-1 cells; format: cell-based; settings: Kasumi-1, 24 hours
Description: (§5) Plate 1×10^7 Kasumi-1 cells with 20 mL medium in dish. Setting control group (0 μM) and groups with SM1044 in various concentrations, and incubating for 24 hours. Extract the whole RNA, and detect the variation of fusion gene at the mRNA level by RT-PCR (FIG. 5A). […] Plate 5×10^5 Kasumi-1 cells in a dish. Setting control group (0 μM) and groups with SM1044 in various concentrations, and incubating for 24 hours. Extracting whole protein of the cells, detect the variation of AML1-ETO fusion protein by ETO antibody through western blot (FIG. 5B). […] It can be concluded that SM1044 doesn't effect the transcription of AML1-ETO fusion gene, but can induce the degradation of the fusion protein. As the typical fusion gene of AML-M2b, AML1-ETO fusion protein plays an important role in the occurrence of leukemia, which can be a target for medical treatments.

AML1-ETO fusion protein = biological target: T1, AML1-ETO fusion protein (Homo sapiens, UniProt Q01196+Q06455); experiment: Western blot of AML1-ETO fusion protein in Kasumi-1 cells; format: cell-based; settings: Kasumi-1, 1 μM/L, 24 hours
T1 construct: Extracting whole protein of the cells; endogenous in cells; host or cells: Kasumi-1 cells
Description: as §5

oncogene c-myc = experiment: Western blot of c-myc expression in HL60 cells; format: cell-based; settings: HL60, above 1 μM/L, 24 hours
Description: Plate 3×10^5/mL HL60 cells in dishes. Setting control group (0 μM) and groups with SM1044 in various concentrations, and incubating for 24 hours. Extracting whole protein of the cells, detect the variation of expression of oncogene c-myc by c-myc antibody through western blot. Over-expression of oncogene c-myc is a character of HL60 cells.

Kasumi-1 cells [15] = experiment: Cell cycle analysis, PI flow cytometry, Kasumi-1; format: cell-based; settings: for cells in G0/G1 phase / cells in G2/M phase / cells in S phase: 24 hours
Description: (§6) Plate 5×10^5/mL Kasumi-1 cells and HL60 cells respectively in dishes. Setting control group (0 μM) and groups with SM1044 in various concentrations, and incubating for 24 hours (kasumi-1 cells) or 12 hours (HL60 cells). Harvest the cells, wash cells with PBS twice, and add 70% ice cold ethanol overnight to fix the cells. Wash cells with PBS, and resuspend the cells in PBS with 10 mg/ml RNase, incubating at 37° C. for 30 min. Add 50 μg/ml propidium iodide (PI), analyzing the distribution of DNA contents by flow cytometry in 1 hour.

HL60 cells [16] = experiment: Cell cycle analysis, PI flow cytometry, HL60; format: cell-based; settings: for cells in G0/G1 phase / cells in G2/M phase / cells in S phase: 12 hours
Description: as §6

[17] = test system: transplanted tumor with Kasumi-1 cells; experiment: Mouse transplanted tumor model, Kasumi-1; format: in vivo; settings: mice, Kasumi-1 tumor under the skin, intraperitoneal 0.125 ml per day, 18-35 d
Description: (§7) Developing mouse transplanted tumor models with acute myeloid leukemic cell lines such as Kasumi-1, HL60 and U937 cells, inject 1×10^7 leukemic cells under the skin. When the tumors are 5 mm in diameter, divide the mice into two groups, control group(con) and groups with SM1044 in various concentrations. Mice intraperitoneally infused with 0.125 ml (kasumi-1 and H160 cells) or 0.1 ml (U937 cells) SM1044 per day, while mice in control groups get equivalent saline, for a course of 18-35 d, measuring the tumors everyday.

[18] = test system: transplanted tumor with HL60 cells; experiment: Mouse transplanted tumor model, HL60; format: in vivo; settings: mice, HL60 tumor under the skin, intraperitoneal 0.125 ml per day, 18-35 d
Description: as §7

[19] = test system: transplanted tumor with U937 cells; experiment: Mouse transplanted tumor model, U937; format: in vivo; settings: mice, U937 tumor under the skin, intraperitoneal 0.1 ml per day, 18-35 d
Description: as §7

T1 sequence (Q01196+Q06455 fused): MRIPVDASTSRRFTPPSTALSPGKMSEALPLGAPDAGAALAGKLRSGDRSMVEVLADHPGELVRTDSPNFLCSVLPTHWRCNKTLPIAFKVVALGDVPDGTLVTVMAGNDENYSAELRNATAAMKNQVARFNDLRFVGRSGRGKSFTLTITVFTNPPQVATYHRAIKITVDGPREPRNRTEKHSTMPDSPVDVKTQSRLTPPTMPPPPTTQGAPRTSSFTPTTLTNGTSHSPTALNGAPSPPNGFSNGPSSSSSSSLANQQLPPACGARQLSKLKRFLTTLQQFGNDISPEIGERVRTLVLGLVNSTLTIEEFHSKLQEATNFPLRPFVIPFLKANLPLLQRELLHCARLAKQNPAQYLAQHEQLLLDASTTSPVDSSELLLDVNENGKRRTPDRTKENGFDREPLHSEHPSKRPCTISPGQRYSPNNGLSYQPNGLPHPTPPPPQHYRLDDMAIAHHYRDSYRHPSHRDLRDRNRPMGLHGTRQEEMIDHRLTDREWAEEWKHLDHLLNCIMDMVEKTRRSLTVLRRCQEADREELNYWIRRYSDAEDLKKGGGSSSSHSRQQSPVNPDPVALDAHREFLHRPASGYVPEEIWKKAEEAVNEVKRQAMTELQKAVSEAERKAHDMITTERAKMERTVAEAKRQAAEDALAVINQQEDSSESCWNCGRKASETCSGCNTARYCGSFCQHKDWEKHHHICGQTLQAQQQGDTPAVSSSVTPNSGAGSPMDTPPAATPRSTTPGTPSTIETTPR

C[C@H]1[C@@H](OCCNCCO[C@H]2O[C@@H]3O[C@@]4(C)CC[C@H]5[C@H](C)CC[C@@H]([C@H]2C)[C@@]35OO4)O[C@@H]2O[C@@]3(C)CC[C@H]4[C@H](C)CC[C@@H]1[C@@]24OO3.O=C(O)/C=C\C(=O)O [SM1044, diarteethe amine maleate]
pIC50 (Kasumi-1 cells [1]): 6.77
pIC50 (NB4-R1 cells [2]): 7.68
pIC50 (HL60 cells [3]): 7.40
pIC50 (U937 cells [4]): 7.70
apoptosis induction (Kasumi-1 cells [5]): can induce apoptosis
apoptosis induction (NB4-R1 cells [6]): can induce apoptosis
apoptosis induction (HL60 cells [7]): can induce apoptosis
apoptosis induction (U937 cells [8]): can induce apoptosis
percentage of DiOC6(3) negtive Kasumi-1 cells (Kasumi-1 cells [9]; 0.1 μM, 24 h): 24.1%
percentage of DiOC6(3) negtive Kasumi-1 cells (Kasumi-1 cells [9]; 0.1 μM, 48 h): 44.9%
percentage of DiOC6(3) negtive Kasumi-1 cells (Kasumi-1 cells [9]; 1 μM, 24 h): 33.8%
percentage of DiOC6(3) negtive Kasumi-1 cells (Kasumi-1 cells [9]; 1 μM, 48 h): 47.1%
percentage of DiOC6(3) negtive Kasumi-1 cells (Kasumi-1 cells [9]; 5 μM, 24 h): 63.2%
percentage of DiOC6(3) negtive Kasumi-1 cells (Kasumi-1 cells [9]; 5 μM, 48 h): 79.2%
percentage of DiOC6(3) negative NB4-R1 cells (NB4-R1 cells [10]; 0.1 μM, 24 h): 13.9%
percentage of DiOC6(3) negative NB4-R1 cells (NB4-R1 cells [10]; 0.1 μM, 48 h): 16.3%
percentage of DiOC6(3) negative NB4-R1 cells (NB4-R1 cells [10]; 1 μM, 24 h): 17.1%
percentage of DiOC6(3) negative NB4-R1 cells (NB4-R1 cells [10]; 1 μM, 48 h): 33.0%
percentage of DiOC6(3) negative NB4-R1 cells (NB4-R1 cells [10]; 5 μM, 24 h): 15.0%
percentage of DiOC6(3) negative NB4-R1 cells (NB4-R1 cells [10]; 5 μM, 48 h): 30.0%
percentage of DiOC6(3) negative HL-60 cells (HL-60 cells; 0.1 μM, 24 h): 23.8%
percentage of DiOC6(3) negative HL-60 cells (HL-60 cells; 0.1 μM, 48 h): 61.7%
percentage of DiOC6(3) negative HL-60 cells (HL-60 cells; 1 μM, 24 h): 25.6%
percentage of DiOC6(3) negative HL-60 cells (HL-60 cells; 1 μM, 48 h): 77.1%
percentage of DiOC6(3) negative HL-60 cells (HL-60 cells; 5 μM, 24 h): 48.5%
percentage of DiOC6(3) negative HL-60 cells (HL-60 cells; 5 μM, 48 h): 81.1%
percentage of DiOC6(3) negative U937 cells (U937 cells [11]; 0.1 μM, 24 h): 4.3%
percentage of DiOC6(3) negative U937 cells (U937 cells [11]; 0.1 μM, 48 h): 5.9%
percentage of DiOC6(3) negative U937 cells (U937 cells [11]; 1 μM, 24 h): 5.2%
percentage of DiOC6(3) negative U937 cells (U937 cells [11]; 1 μM, 48 h): 5.6%
percentage of DiOC6(3) negative U937 cells (U937 cells [11]; 5 μM, 24 h): 9.4%
percentage of DiOC6(3) negative U937 cells (U937 cells [11]; 5 μM, 48 h): 16.2%
activated apoptosis-related proteins (caspase-3, caspase-8 and/or caspase-9) [12]: increase
activated apoptosis-related proteins (caspase-3, caspase-8 and/or caspase-9) [13]: increase
activated apoptosis-related proteins (caspase-3, caspase-8 and/or caspase-9) [14]: increase
variation of AML1-ETO fusion gene at the mRNA level (AML1-ETO fusion gene): no effect on the transcription of fusion gene
degradation of AML1-ETO fusion protein (AML1-ETO fusion protein): can induce the degradation of AML1-ETO fusion protein
expression of oncogene c-myc (oncogene c-myc): completely inhibit
cells in G0/G1 phase (Kasumi-1 cells [15]; Kasumi-1, 0.1 μM): 59.62%
cells in G2/M phase (Kasumi-1 cells [15]; Kasumi-1, 0.1 μM): 6.01%
cells in S phase (Kasumi-1 cells [15]; Kasumi-1, 0.1 μM): 34.37%
cells in G0/G1 phase (Kasumi-1 cells [15]; Kasumi-1, 1 μM): 71.75%
cells in G2/M phase (Kasumi-1 cells [15]; Kasumi-1, 1 μM): 6.70%
cells in S phase (Kasumi-1 cells [15]; Kasumi-1, 1 μM): 21.75%
cells in G0/G1 phase (Kasumi-1 cells [15]; Kasumi-1, 5 μM): 71.07%
cells in G2/M phase (Kasumi-1 cells [15]; Kasumi-1, 5 μM): 6.00%
cells in S phase (Kasumi-1 cells [15]; Kasumi-1, 5 μM): 21.92%
cell cycle block (Kasumi-1 cells [15]; Kasumi-1, 24 hours): blocked in G0/G1 phase
cells in G0/G1 phase (HL60 cells [16]; HL60, 0.1 μM): 41.60%
cells in G2/M phase (HL60 cells [16]; HL60, 0.1 μM): 3.80%
cells in S phase (HL60 cells [16]; HL60, 0.1 μM): 54.61%
cells in G0/G1 phase (HL60 cells [16]; HL60, 1 μM): 44.12%
cells in G2/M phase (HL60 cells [16]; HL60, 1 μM): 8.00%
cells in S phase (HL60 cells [16]; HL60, 1 μM): 47.88%
cells in G0/G1 phase (HL60 cells [16]; HL60, 5 μM): 54.48%
cells in G2/M phase (HL60 cells [16]; HL60, 5 μM): 8.00%
cells in S phase (HL60 cells [16]; HL60, 5 μM): 37.52%
cell cycle block (HL60 cells [16]; HL60, 12 hours): blocked in G0/G1 phase
tumor size compared with control group [17]: obviously little than controls
tumor size compared with control group [18]: obviously little than controls
tumor size compared with control group [19]: obviously little than controls
